In patent US11564923B2, “Compounds and pharmaceutical compositions thereof for the treatment of inflammatory disorders” (Galapagos NV, priority 2017, dated 2023):

Tests used:
[1] = molecular target: T1, Recombinant human JAK1 (catalytic domain, amino acids 866-1154) (Homo sapiens, UniProt P23458); assay: JAK1 inhibition assay; type: biochemical; conditions: read-out: JAK1 potency IC50
T1 construct: catalytic domain, amino acids 866-1154

[2] = molecular target: T2, Recombinant human TYK2 catalytic domain (amino acids 871-1187) (Homo sapiens, UniProt P29597); assay: TYK2 radioactive assay polyGT substrate; type: biochemical; note: 0.1 µM ATP
T2 construct: catalytic domain (amino acids 871-1187)
T2 sequence (P29597 871-1187): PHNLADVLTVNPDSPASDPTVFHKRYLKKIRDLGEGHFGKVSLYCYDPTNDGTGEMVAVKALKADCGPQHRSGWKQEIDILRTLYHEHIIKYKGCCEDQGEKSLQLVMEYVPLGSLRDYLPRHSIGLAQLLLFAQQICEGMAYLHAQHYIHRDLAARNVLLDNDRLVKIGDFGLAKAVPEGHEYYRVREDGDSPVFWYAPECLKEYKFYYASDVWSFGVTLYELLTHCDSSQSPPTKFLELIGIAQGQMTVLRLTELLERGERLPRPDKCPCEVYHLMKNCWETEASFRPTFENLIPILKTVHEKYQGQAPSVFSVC
Method in brief: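 Reaction at 30° C. for 120 min, ended with 150 mM phosphoric acid, washed, counted; percent inhibition scaled between vehicle and 10 μM staurosporine cpm.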

[3] = molecular target: Recombinant human JAK3 catalytic domain (amino acids 781-1124) (Homo sapiens, UniProt P52333); assay: JAK3 inhibition assay; type: biochemical
Method in brief: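 Radiometric kinase reaction run 45 min at 30° C., stopped with phosphoric acid; activity as vehicle cpm minus 10 μM staurosporine cpm.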

[4] = molecular target: T3, Recombinant human JAK2 (catalytic domain, amino acids 808-1132) (Homo sapiens, UniProt O60674); assay: JAK2 inhibition assay; type: biochemical; conditions: read-out: JAK2 potency IC50; note: 0.7 µM ATP
T3 construct: catalytic domain, amino acids 808-1132

[5] = test system: IL-12 activation of STAT4 in NK-92 cells; assay: IL-12 activation of STAT4 in NK-92 cells using AphaLISA SureFire technology; type: cell-based; conditions: Homo sapiens, NK92; IL-12 activation of STAT4 in NK-92 cells, AlphaLISA SureFire; average IC50; read-out: IL12 pSTAT4 IC50
Method in brief: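 NK-92 cells, starved of rhIL-2 overnight, were stimulated with rhIL-12 for 30 min at 37 °C with test compounds, then lysed. Phospho-STAT4 (Tyr693) was read by AlphaLISA SureFire. Percent inhibition versus the vehicle-plus-trigger signal was fitted by sigmoidal nonlinear regression to give IC50, averaged over experiments.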

Chain of Recombinant human JAK3 catalytic domain (amino acids 781-1124) (P52333 781-1124): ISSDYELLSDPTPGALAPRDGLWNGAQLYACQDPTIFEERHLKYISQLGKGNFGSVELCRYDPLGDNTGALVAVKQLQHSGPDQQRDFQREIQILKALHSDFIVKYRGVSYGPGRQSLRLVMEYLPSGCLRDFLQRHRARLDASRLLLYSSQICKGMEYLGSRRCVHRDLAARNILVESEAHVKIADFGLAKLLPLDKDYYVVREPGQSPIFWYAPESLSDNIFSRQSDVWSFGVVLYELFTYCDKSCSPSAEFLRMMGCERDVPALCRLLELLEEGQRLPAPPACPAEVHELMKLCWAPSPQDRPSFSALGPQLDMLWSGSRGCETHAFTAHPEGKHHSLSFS
T1 sequence (P23458 866-1154): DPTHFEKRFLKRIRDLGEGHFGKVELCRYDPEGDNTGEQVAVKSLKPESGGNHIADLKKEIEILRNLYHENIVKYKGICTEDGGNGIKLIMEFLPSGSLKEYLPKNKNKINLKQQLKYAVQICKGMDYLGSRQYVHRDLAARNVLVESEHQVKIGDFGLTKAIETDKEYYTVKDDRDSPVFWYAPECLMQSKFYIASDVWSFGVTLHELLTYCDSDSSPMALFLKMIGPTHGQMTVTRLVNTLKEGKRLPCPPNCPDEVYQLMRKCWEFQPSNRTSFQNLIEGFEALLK
T3 sequence (O60674 808-1132): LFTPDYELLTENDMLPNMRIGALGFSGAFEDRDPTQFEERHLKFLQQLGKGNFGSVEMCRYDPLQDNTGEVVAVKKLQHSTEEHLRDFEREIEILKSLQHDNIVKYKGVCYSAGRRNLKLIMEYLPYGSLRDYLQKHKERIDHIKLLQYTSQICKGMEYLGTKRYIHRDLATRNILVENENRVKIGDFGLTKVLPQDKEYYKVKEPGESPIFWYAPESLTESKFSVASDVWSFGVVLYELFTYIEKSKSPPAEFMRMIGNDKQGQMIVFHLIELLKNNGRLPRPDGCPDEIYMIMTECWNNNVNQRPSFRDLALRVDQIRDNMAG

SMILES	IC50 [1]	IC50 [2]	IC50 [3]	IC50 [4]	IC50 [5]
Cc1cc(C(F)(F)F)ncc1Oc1cc(Nc2cc(N)ncn2)c2ncn(C)c2n1 [Compound 1, N-[3-Methyl-5-(4-methyl-6-trifluoromethyl-pyridin-3-yloxy)-3H-imidazo[4,5-b]pyridin-7-yl]-pyrimidine-4,6-diamine]	153 nM	10.1 nM	1490 nM	67.3 nM	111 nM
Cc1cc(C#N)ncc1Nc1cc(Nc2ccc(C(=O)N(C)C)cn2)c2ncn(C)c2n1 [Compound 67, 6-[[5-[(6-cyano-4-methyl-3-pyridyl)amino]-3-methyl-imidazo[4,5-b]pyridin-7-yl]amino]-N,N-dimethyl-pyridine-3-carboxamide]	51.4 nM	3.38 nM	258 nM	28.2 nM	54.1 nM
Cc1cc(C#N)ncc1Oc1cc(Nc2ccc(S(=O)(=O)C(F)F)cc2)c2ncn(C)c2n1 [Compound 68, 5-[7-[4-(difluoromethylsulfonyl)anilino]-3-methyl-imidazo[4,5-b]pyridin-5-yl]oxy-4-methyl-pyridine-2-carbonitrile]	113 nM	15.7 nM	2760 nM	175 nM	122 nM
Cc1cc(C#N)ncc1Oc1cc(Nc2ccc(S(=O)(=O)C3CC3)cc2)c2ncn(C)c2n1 [Compound 69, 5-[7-(4-cyclopropylsulfonylanilino)-3-methyl-imidazo[4,5-b]pyridin-5-yl]oxy-4-methyl-pyridine-2-carbonitrile]	61.3 nM	6.07 nM	1310 nM	70 nM	42.8 nM
CC(C)C(Nc1cc(Nc2cc(N)ncn2)c2ncn(C)c2n1)C(F)(F)F (stereo not shown) [Compound 93, N7-(6-aminopyrimidin-4-yl)-3-methyl-N5-[2-methyl-1-(trifluoromethyl)propyl)imidazo[4,5-b]pyridine-5,7-diamine]	57.1 nM	4.99 nM	77.4 nM	16.4 nM	25.4 nM

These reach a lower IC50 [1]. Values come first.

IC50 [1]	IC50 [2]	IC50 [3]	IC50 [4]	IC50 [5]	SMILES
9.6 nM	1 nM	13 nM	1.17 nM		Cn1cnc2c(Nc3ccc(S(C)(=O)=O)cn3)cc(NC(C3CC3)C(F)(F)F)nc21 (stereo not shown) [Compound 92, N5-(1-cyclopropyl-2,2,2-trifluoro-ethyl)-3-methyl-N7-(5-methylsulfonyl-2-pyridyl)imidazo[4,5-b]pyridine-5,7-diamine]
5.3 nM	0.52 nM	189 nM	1.42 nM	22 nM	Cc1cc(C#N)ncc1N(c1cc(Nc2cc(N)ncn2)c2ncn(C)c2n1)C1CC1 [Compound 88, 5-[[7-[(6-aminopyrimidin-4-yl)amino]-3-methyl-imidazo[4,5-b]pyridin-5-yl]-cyclopropyl-amino]-4-methyl-pyridine-2-carbonitrile]
